Laboratory results from patent US8075900B2, “Melanoma associated peptide analogues and vaccines against melanoma” (The United States of America, as represented by the …, priority 1996, dated 2011).
pIC50: −log10 of the molar value. Several values for one entry are separate records, joined by “and”; a condition that tells them apart may be missing. Equal entries are not always repeated. No end group written: not given here.

target: T1, HLA-A*0201 (Homo sapiens, UniProt P04439, D140Y/D185E/D98H/E176V/E277Q/G131W/G231S/I119V/I121R/I166T/I218V/L300P/L318F/N151K/N90K/P208A/P217A/Q86G/Q94H/R138H/R169H/T345S); experiment: Peptide-induced HLA-A*0201 upregulation/stabilization on T2 cells; format: binding; details: 25 μM peptide
T1 construct: Peptide-induced HLA-A*0201 upregulation on T2 cells was performed as described previously; endogenous in cells; host or cells: T2 cells (processing-defective, HLA-A*0201+)

Sequence | HLA-A*0201 stabilization (Fluorescence Index)
AAGIGILTA [alanine-substituted Melan-A/MART-1 27-35 analogue] | 1.03
AIGIGILTV [Melan-A/MART-1 27-35 N-terminal anchor-replacement analogue] | 1.29

same assay, conditions: 50 μM peptide

Sequence | HLA-A*0201 stabilization (Fluorescence Index)
AAGIGILTA [alanine-substituted Melan-A/MART-1 27-35 analogue] | 1.00
AIGIGILTV [Melan-A/MART-1 27-35 N-terminal anchor-replacement analogue] | 1.58

tested on: T2 target cells, Melan-A/MART-1 27-35-reactive TIL 1235 lymphocytes; experiment: Chromium-release assay, target cell sensitization for lysis by TIL 1235; format: cell-based, human; details: E:T 20:1, T2 target cells preincubated 90 min with 1 μM peptide, 5 hours

Sequence | target cell lysis by TIL 1235 (% specific lysis)
AAGAGILTV [alanine-substituted Melan-A/MART-1 27-35 analogue] | 0%
AAGIGILTA [alanine-substituted Melan-A/MART-1 27-35 analogue] | 26%
AIGIGILTV [Melan-A/MART-1 27-35 N-terminal anchor-replacement analogue] | 27%
YLEPGPVTA [reference compound] | −3% and −1%
AAGIGALTV [alanine-substituted Melan-A/MART-1 27-35 analogue] | 2%
ALGIGILTV [Melan-A/MART-1 27-35 N-terminal anchor-replacement analogue] | 16%
AAGIAILTV [alanine-substituted Melan-A/MART-1 27-35 analogue] | 4%
AAAIGILTV [alanine-substituted Melan-A/MART-1 27-35 analogue] | 13%
AMGIGILTV [Melan-A/MART-1 27-35 N-terminal anchor-replacement analogue] | 6%
AVGIGILTV [Melan-A/MART-1 27-35 N-terminal anchor-replacement analogue] | 27%
AAGIGIATV [alanine-substituted Melan-A/MART-1 27-35 analogue] | 6%
AAGIGILAV [alanine-substituted Melan-A/MART-1 27-35 analogue] | 11%
GAGIGILTV [glycine-substituted Melan-A/MART-1 27-35 analogue] | 52%
AGGIGILTV [glycine-substituted Melan-A/MART-1 27-35 analogue] | 6%

tested on: T2 target cells, gp100-reactive TIL 1200 lymphocytes; experiment: Chromium-release assay, target cell sensitization for lysis by TIL 1200; format: cell-based, human; details: E:T 20:1, T2 target cells preincubated 90 min with 1 μM peptide, 5 hours
Method: Chromium release assays were performed as described previously (Bakker et al., 1994, J. Exp. Med. 179:1005). […] Various amounts of effector cells were then added to the target cells in triplicate wells of U bottomed microliter plates (Costar, Badhoevedorp, The Netherlands) in a final volume of […]. […] After 5 h of incubation, part of the supernatant was harvested and its radioactive content was measured. The mean percentage specific lysis of triplicate wells was calculated using the formula: % specific lysis=((experimental release−spontaneous release)÷(maximal release−spontaneous release))×100.

Sequence | target cell lysis by TIL 1200 (% specific lysis) [%]
KAWGQYWQV | 64
KTWGAYWQV | 9
YLEPGPVTA [reference compound] | 3
KTWGQAWQV | 7
KTWGQYAQV | −2
KTWAQYWQV | 63
KTWGQYWQA | 76
ATWGQYWQV | 75
KMWGQYWQV | 57
KTAGQYWQV | 58

target: T1, HLA-A*0201; experiment: Competition based HLA-A*0201 peptide-binding assay on JY cells; details: competition with Fluorescein labeled reference peptide at 4° C., mild acid treated HLA-A*0201+ B-LCL; read-out: Affinity IC50

Sequence | pIC50
KVWGQYWQV | 6.10
KLWGQYWQV | 6.40
KTWGQYWAV | 6.30
KIWGQYWQV | 6.22
